Test results taken from the supplement of paper PMC10307832.

How the values were obtained:
Assay in all cases: relative viability (nuclei count vs DMSO), 5 days (fraction); higher = more cells survive
Ruxolitinib + Bortezomib = compound: N#CC[C@H](C1CCCC1)n1cc(-c2ncnc3[nH]ccc23)cn1 [Ruxolitinib] + CC(C)C[C@H](NC(=O)[C@H](Cc1ccccc1)NC(=O)c1cnccn1)B(O)O [Bortezomib] (partner 0.002 µM)
Procedure, shortened: (§1)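 Lung cancer cell lines, seeded in 1536-well plates, were treated the following day by pin tool with a single drug or with five library-drug doses (not always all listed) in √10 steps on top of a fixed anchor-drug dose. Cells were fixed and nuclei stained in one step after 5 days, and nuclei were counted. Relative viability is the nuclei count for treated wells divided by that for vehicle wells, reported as medians of duplicate plates.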

Ruxolitinib + Pictilisib = compound: N#CC[C@H](C1CCCC1)n1cc(-c2ncnc3[nH]ccc23)cn1 [Ruxolitinib] + CS(=O)(=O)N1CCN(Cc2cc3nc(-c4cccc5[nH]ncc45)nc(N4CCOCC4)c3s2)CC1 [Pictilisib] (partner 1 µM)
Procedure, shortened: as §1

VE-821 + Tozasertib = compound: CS(=O)(=O)c1ccc(-c2cnc(N)c(C(=O)Nc3ccccc3)n2)cc1 [VE-821] + Cc1cc(Nc2cc(N3CCN(C)CC3)nc(Sc3ccc(NC(=O)C4CC4)cc3)n2)n[nH]1 [Tozasertib] (partner 0.1 µM)
Procedure, shortened: as §1

Ruxolitinib + Olaparib = compound: N#CC[C@H](C1CCCC1)n1cc(-c2ncnc3[nH]ccc23)cn1 [Ruxolitinib] + O=C(c1cc(Cc2n[nH]c(=O)c3ccccc23)ccc1F)N1CCN(C(=O)C2CC2)CC1 [Olaparib] (partner 8 µM)
Procedure, shortened: as §1

Cell Line | relative viability (Ruxolitinib + Bortezomib; first compound 0.08 µM) | relative viability (Ruxolitinib + Bortezomib; first compound 0.253 µM) | relative viability (Ruxolitinib + Bortezomib; first compound 0.8 µM) | relative viability (Ruxolitinib + Bortezomib; first compound 2.53 µM) | relative viability (Ruxolitinib + Bortezomib; first compound 8 µM) | relative viability (Ruxolitinib + Pictilisib; first compound 0.08 µM) | relative viability (Ruxolitinib + Pictilisib; first compound 0.253 µM) | relative viability (Ruxolitinib + Pictilisib; first compound 0.8 µM) | relative viability (Ruxolitinib + Pictilisib; first compound 2.53 µM) | relative viability (Ruxolitinib + Pictilisib; first compound 8 µM) | relative viability (VE-821 + Tozasertib; first compound 0.08 µM) | relative viability (VE-821 + Tozasertib; first compound 0.253 µM) | relative viability (VE-821 + Tozasertib; first compound 0.8 µM) | relative viability (VE-821 + Tozasertib; first compound 2.53 µM) | relative viability (VE-821 + Tozasertib; first compound 8 µM) | relative viability (Ruxolitinib + Olaparib; first compound 0.08 µM) | relative viability (Ruxolitinib + Olaparib; first compound 0.253 µM) | relative viability (Ruxolitinib + Olaparib; first compound 0.8 µM) | relative viability (Ruxolitinib + Olaparib; first compound 2.53 µM) | relative viability (Ruxolitinib + Olaparib; first compound 8 µM)
LXF-289 | 1 | 0.963 | 0.991 | 0.933 | 0.897 | 0.785 | 0.797 | 0.804 | 0.739 | 0.498 | 0.246 | 0.196 | 0.205 | 0.193 | 0.119 | 0.994 | 1.1 | 1.13 | 1.03 | 0.924
NCI-H650 | – | 0.777 | 0.812 | 0.888 | 0.478 | – | 0.881 | 1.21 | 0.699 | 0.649 | 0.744 | 0.744 | 0.643 | 0.765 | 0.707 | 0.379 | 0.436 | 0.392 | 0.384 | 0.314
NCI-H647 | 0.867 | 0.942 | 1.23 | 0.783 | 0.885 | – | 0.358 | 0.449 | 0.362 | 0.514 | 0.372 | 0.26 | 0.261 | 0.238 | 0.164 | 0.578 | 0.687 | 0.596 | 0.475 | 0.31
NCI-H3122 | 1.02 | 0.986 | 0.92 | 0.926 | 0.873 | 0.538 | 0.509 | 0.552 | 0.357 | 0.562 | 0.389 | 0.383 | 0.369 | 0.418 | 0.306 | 0.7 | 0.635 | 0.711 | 0.627 | 0.644
PC-3 [JPC-3] | 0.63 | 0.819 | 0.738 | 0.796 | 0.7 | 0.507 | 0.752 | 0.763 | 0.678 | 0.7 | 0.956 | 0.819 | 0.881 | 0.805 | 0.787 | – | 1.07 | 1.13 | 1.03 | 0.922
NCI-H1355 | 1.25 | 1.13 | 1.14 | 1.11 | 1.22 | 0.385 | 0.391 | 0.386 | 0.329 | 0.352 | 0.542 | 0.52 | 0.404 | 0.369 | 0.194 | 0.745 | 0.749 | 0.798 | 0.655 | 0.616
NCI-H838 | 0.875 | 0.652 | 0.887 | 0.398 | 0.342 | 0.464 | 0.433 | 0.402 | 0.24 | 0.278 | 0.284 | 0.25 | 0.2 | 0.212 | 0.215 | 0.801 | 0.718 | 0.62 | 0.4 | 0.202
